For one assay, the system named is CCK-receptor. To be noted: background; cited from earlier work.
Another assay has as its target T1, CCK receptor (pancreas) (Rattus norvegicus, UniProt P30551).
T1 construct: The whole pancreas of a male Sprague-Dawley rat; from tissue; host or cells: whole pancreas of male Sprague-Dawley rat, washed membrane suspension
T1 sequence (P30551 1-444): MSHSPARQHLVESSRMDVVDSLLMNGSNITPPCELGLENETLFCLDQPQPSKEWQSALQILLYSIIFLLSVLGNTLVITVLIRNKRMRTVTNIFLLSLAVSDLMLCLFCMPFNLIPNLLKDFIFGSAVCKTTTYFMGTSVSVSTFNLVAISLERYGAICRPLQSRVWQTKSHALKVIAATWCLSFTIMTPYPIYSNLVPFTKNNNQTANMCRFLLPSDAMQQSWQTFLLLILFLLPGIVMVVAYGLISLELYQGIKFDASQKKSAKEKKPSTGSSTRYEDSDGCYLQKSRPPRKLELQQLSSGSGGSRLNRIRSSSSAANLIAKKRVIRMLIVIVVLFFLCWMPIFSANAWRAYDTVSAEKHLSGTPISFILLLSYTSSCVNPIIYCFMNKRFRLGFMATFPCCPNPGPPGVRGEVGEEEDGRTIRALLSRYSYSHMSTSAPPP
Nature of the assay: CCK receptor binding (pancreas) method; I-CCK-8 pancreas assay (CCK-antagonism). Also on record: species or system male Sprague-Dawley rat. To be noted: for IC50: 125I-CCK binding, rat pancreas membranes, 37° C., 30 minutes, read-out: Anti-CCK Activity IC50; for effect on the 125I-CCK receptor binding assay: added protease inhibitor in the binding assay. From the text:
Screening of the novel compounds according to the present invention to determine biological activity and obtain an IC50 value for them, in order to identify significant CCK-antagonism, may be accomplished using an ^125 I-CCK receptor binding assay and in vitro isolated tissue preparations. These tests involve the following:
CCK receptor binding (pancreas) method
CCK-33 is radiolabeled with ^125 I-Bolton Hunter reagent (2000 Ci/mmole), as described by Sankara et al. (J. Biol. Chem., 254, 9349-9351, 1979). Receptor binding is performed according to Innis and Snyder (Proc. Natl. Acad. Sci., 77, 6917-6921, 1980), with the minor modification of adding the additional protease inhibitors, phenyl-methane sulfonyl fluoride and o-phenanthroline, which have no effect on the ^125 I-CCK receptor binding assay.
The whole pancreas of a male Sprague-Dawley rat (200-350 g), which has been sacrificed by decapitation, is dissected free of fat tissue and homogenized in 20 volumes of ice-cold 50 mM Tris HCl (pH 7.7 at 25° C.) with a Brinkman Polytron PT-10. The homogenates are centrifuged at 48,000 g for 10 minutes, then the resulting pellets are resuspended in Tris Buffer, centrifuged as above, and resuspended in 200 volumes of binding assay buffer (50 mM Tris HCl, pH 7.7 at 25° C., 5 mM dithiothreitol, 0.1 mM bacitracin, 1.2 mM phenylmethane sulfonyl fluoride and 0.5 mM o-phenanthroline).
For the binding assay, 25 μl of buffer (for total binding), or unlabeled CCK-8 sulfate sufficient to give a final concentration of 1 μM of CCK-8 (for nonspecific binding), or the compounds of the formula of the compounds according to the instant invention (for determination of antagonism to ^125 I-CCK binding) and 25 μl of ^125 I-CCK-33 (30,000-40,000 cpm), are added to 450 μl of the membrane suspensions in microfuge tubes. All assays are run in duplicate or triplicate, and the reaction mixtures are incubated at 37° C. for 30 minutes and centrifuged in a Beckman Microfuge (4 minutes) immediately after adding 1 ml of ice-cold incubation buffer. The supernatant is aspirated and discarded, and the pellets are counted with a Beckman Gamma 5000.
Activity Testing with I-CCK-8 Pancreas Assay
The compounds of Examples 1-11 were tested as CCK-antagonists (pancreas assay) with the following results: […]
A general note: Formazan colour is commonly taken as a measure of viable cells.

Where a SMILES comes first, the peptide text is derived from it. [ ]: non-standard residue; d: D form. The star is where a group is joined. sY = N[C@@H](Cc1ccc(OS(=O)(=O)O)cc1)C(=O)O; Cbz = O=C(OCc1ccccc1)*; Boc = CC(C)(C)OC(=O)*

Data on 18 molecules can be found in patent publication US4563451A, “Quinazolino-1,4-benzodiazepin-5,13-diones” (Merck & Co., Inc., priority 1985, dated 1986).

In the case of `CSCC[C@H](NC(=O)OC(C)(C)C)C(=O)N[C@@H](CC(=O)O)C(=O)N[C@@H](Cc1ccccc1)C(N)=O` [Boc--Met--Asp--Phe--NH2] (Boc-Met-Asp-Phe-NH2), the “CCK-antagonism (in words)” value with CCK-receptor is listed as “can function as CCK-antagonists”.

Turning to `CSCC[C@H](NC(=O)[C@H](Cc1ccc(OS(=O)(=O)O)cc1)NC(=O)OCc1ccccc1)C(=O)NCC(=O)N[C@@H](Cc1c[nH]c2ccccc12)C(=O)N[C@@H](CCSC)C(=O)N[C@@H](CC(=O)O)C(N)=O` [Cbz--Tyr(SO3 H)--Met--Gly--Trp--Met--Asp--NH2] (Cbz-[sY]MGWMD-NH2), the “CCK-antagonism (in words)” value with CCK-receptor is listed as “can function as CCK-antagonists”.

`CC(C)C[C@@H]1N[C@H]2N(C1=O)c1ccccc1[C@@]2(O)C[C@@H]1NC(=O)c2ccccc2N2C(=O)c3ccccc3NC12` (stereo partly drawn) [Example 1, 7,7a-dihydro-7-[(2,3,9,9Aα-tetrahydro-9α-hydroxy-2-(2-methylpropyl)-3-oxo-1H-imidazo(1,2-a)indol-9-yl)methyl]quinazolino(3,2-a)(1,4)benzazepin-5,13-(6H,7H)dione hydrate]: the IC50 on CCK receptor (pancreas) was determined as 0.21 µM.

Consider `CC(=O)N1[C@H]2N(C(=O)[C@@H]1CC(C)C)c1ccccc1[C@@]2(O)C[C@@H]1NC(=O)c2ccccc2-n2c1nc1ccccc1c2=O` [Example 2, 7-[(1-acetyl-2,3,9,9Aα-tetrahydro-9α-hydroxy-2-(2-methylpropyl)-3-oxo-1H-imidazo(1,2-A)indol-9-yl)methyl]quinazolino(3,2-A)-1,4-benzodiazepin-5,13-(6H,7H)-dione], for which the IC50 at CCK receptor (pancreas) was 22 µM.

Regarding `CCN1[C@H]2N(C(=O)[C@@H]1CC(C)C)c1ccccc1[C@@]2(O)C[C@@H]1NC(=O)c2ccccc2N2C(=O)c3ccccc3NC12` (stereo partly drawn) [Example 3, 7-[(1-ethyl-2,3,9,9Aα-tetrahydro-9α-hydroxy-2-(2-methylpropyl)-3-oxo-1H-imidazo(1,2-A)indol-9-yl)methyl]-6,7,7A,8-tetrahydro-5H,13H-quinazolino-(3,2-A)-1,4-benzazepin-5H,13-dione hemihydrate], on CCK receptor (pancreas), the IC50 was found to be 0.35 µM.

As for `CC(C)CC1C(=O)N2c3ccccc3C(O)(CC3NC(=O)c4ccccc4-n4c3nc3ccccc3c4=O)C2N1C(=O)OCc1ccccc1` (stereo not drawn) [Example 4], on CCK receptor (pancreas), the IC50 is 5 µM.

Consider `CC(C)C[C@H]1C(=O)N2c3ccccc3[C@@](O)(C[C@@H]3NC(=O)c4ccccc4N4C(=O)c5ccccc5NC34)[C@H]2N1O` (stereo partly drawn) [Example 5, 7,7α-dihydro-7-[(2,3,9,9Aα-tetrahydro-1,9α-dihydroxy-2-(2-methylpropyl)-3-oxo-1H-imidazo-(1,2-A)-indol-9-yl)methyl]quinazolino(3,2-A)-1,4-benzodiazepin-5,13(6H,7H)-dione hydrate], for which the IC50 at CCK receptor (pancreas) came to 0.67 µM.

As to `CC(C)CC1C(=O)N2c3ccccc3C(O)(CC3NC(=O)c4ccccc4-n4c3nc3ccccc3c4=O)C2N1CCCc1ccccc1` (stereo not drawn) [Example 6, 7-[1-(3-phenylpropyl)-2,3,9,9Aα-tetrahydro-9α-hydroxy-2-(2-methylpropyl)-3-oxo-1H-imidazo(1,2-A)indol-9-yl)methyl]-6,7,7A,8-tetrahydro-5H,13H-quinazolino(3,2-A)-1,4-benzazepin-5H,13-dione sesquihydrate], the IC50 at CCK receptor (pancreas) came out at 0.19 µM.

As to `CC(C)C[C@H]1C(=O)N2c3ccccc3[C@@](O)(C[C@@H]3NC(=O)c4ccccc4-n4c3nc3ccccc3c4=O)[C@H]2N1C(=O)[C@H](Cc1ccc(OCc2ccccc2)cc1)NC(=O)OC(C)(C)C` [Example 7, 7-{{1-[N-((1,1-dimethylethoxy)carbonyl)-o-phenylmethyltryosyl]-2,3,9,9Aα-tetrahydro-9α-hydroxy-2-(2-methylpropyl)-3-oxo-1H-imidazo(1,2-A)indol-9-yl}methyl}quinazolino(3,2-A)-1,4-benzodiazepin-5,13-(6H,7H)-dione], the 50% inhibitory concentration (IC50) at CCK receptor (pancreas) came out at 100 µM.

For `CC(C)C[C@H]1C(=O)N2c3ccccc3[C@@](O)(C[C@@H]3NC(=O)c4ccccc4-n4c3nc3ccccc3c4=O)[C@H]2N1C(=O)[C@H](Cc1ccc(O)cc1)NC(=O)OC(C)(C)C` [Example 8, 7-{{1-[2-((1,1-dimethylethoxy)carbonyl)amino-3-(4-hydroxyphenyl)propanoyl]-2,3,9,9Aα-tetrahydro-9α-hydroxy-2-(2-methylpropyl)-3-oxo-1H-imidazo(1,2-A)indol-9-yl}methyl}quinazolino(3,2-A)-1,4-benzodiazepin-5,13-(6H,7H)-dione hemihydrate], the IC50 at CCK receptor (pancreas) came to 46 µM.

`CC(C)C[C@H]1C(=O)N2c3ccccc3[C@@](O)(C[C@@H]3NC(=O)c4ccccc4-n4c3nc3ccccc3c4=O)[C@H]2N1C(=O)C(CCCCNC(=O)OCc1ccccc1)NC(=O)OC(C)(C)C` (stereo partly drawn) [Example 9, 7-{{1-[2-((1,1-dimethylethoxy)carbonyl)amino-6-(phenylmethyloxycarbonyl)aminohexanoyl]-2,3,9,9Aα-tetrahydro-9α-hydroxy-2-(2-methylpropyl)-3-oxo-1H-imidazo(1,2-A)indol-9-yl}methyl}quinazolino(3,2-A)-1,4-benzodiazepin-5,13-(6H,7H)-dione hydrate]: on CCK receptor (pancreas), the IC50 turned out to be 100 µM.

Regarding `CC(C)C[C@H]1C(=O)N2c3ccccc3[C@@](O)(C[C@@H]3NC(=O)c4ccccc4-n4c3nc3ccccc3c4=O)[C@H]2N1C(=O)C(CCCNC(=O)OCc1ccccc1)NC(=O)OC(C)(C)C` (stereo partly drawn) [Example 10, 7-{{1-[2-((1,1-dimethylethoxy)carbonyl)amino-5-(phenylmethyloxycarbonyl)aminopentanoyl]-2,3,9,9Aα-tetrahydro-9α-hydroxy-2-(2-methylpropyl)-3-oxo-1H-imidazo(1,2-A)indol-9-yl}methyl}quinazolino(3,2-A)-1,4-benzodiazepin-5,13-(6H,7H)-dione], the IC50 at CCK receptor (pancreas) came out at 4.3 µM.

Take `CC(C)C[C@H]1C(=O)N2c3ccccc3[C@@](O)(C[C@@H]3NC(=O)c4ccccc4N4C(=O)c5ccccc5NC34)[C@H]2N1C(=O)C(CCCNC(=O)OCc1ccccc1)NC(=O)OC(C)(C)C` (stereo partly drawn) [Example 11, 7-{{1-[2-((1,1-dimethylethoxy)carbonyl)amino-5-(phenylmethyloxycarbonyl)aminopentanoyl]-2,3,9,9Aα-tetrahydro-9α-hydroxy-2-(2-methylpropyl)-3-oxo-1H-imidazo(1,2-A)indol-9-yl}methyl}-6,7,7A,8-tetrahydro-5H,13-quinazolino(3,2-A)-1,4-benzodiazepin-5H,13-dione hydrate]: the IC50 at CCK receptor (pancreas) came out at 1.3 µM.

As for `CSCC[C@H](N)C(=O)N[C@@H](CC(=O)O)C(=O)N[C@@H](Cc1ccccc1)C(N)=O` [Met--Asp--Phe--NH2] (H-Met-Asp-Phe-NH2), the “CCK-antagonism (in words)” value with CCK-receptor is “can function as CCK-antagonists”.

Consider `CCCC(=O)Nc1nc2c(ncn2[C@@H]2O[C@@H]3COP(=O)(O)O[C@H]3[C@H]2OC(=O)CCC)c(=O)[nH]1` [dibutyryl cyclic GMP], for which the “CCK-antagonism (in words)” value with CCK-receptor is given as “the most potent”.

As to `CC(C)C[C@@H]1N[C@H]2N(C1=O)c1ccccc1[C@@]2(O)C[C@@H]1NC(=O)c2ccccc2-n2c1nc1ccccc1c2=O` [formula (I), 7β-((2,3,9,9Aα-tetrahydro-9α-hydroxy-2-(2-methylpropyl)-3-oxo-1H-imidazo-(1,2-A)-indol-9-yl)-methyl)quinazolino(3,2-A)(1,4)benzodiazepin-5,13-(6H,7H)dione], the “CCK-antagonism (in words)” value in the assay with CCK-receptor is “has been shown to be a CCK-antagonist”.

On to `c1cnc2c(c1)ccc1cccnc12` [o-phenanthroline, reference compound], for which the “effect on the 125I-CCK receptor binding assay” value at CCK receptor (pancreas) was “no effect”.

For the molecule `O=S(=O)(F)Cc1ccccc1` [phenyl-methane sulfonyl fluoride, reference compound], the “effect on the 125I-CCK receptor binding assay” value at CCK receptor (pancreas) is recorded as “no effect”.

What is called IC50 is the concentration that gives 50% inhibition.
